Laboratory results reported in patent US20070117864A1, “Composition for preventing and treating hepatoma” (Tokyo University of Agr. & Tech. TLO Co., Ltd., priority 2003, published 2007).
Marks after values point to notes of the source that are not given here.

System: AH109A cells
Experiment: solid tumor growth and metastasis in hepatoma-bearing rats fed ENL-supplemented diets
Format: in vivo, rat
Details: for Total number of metastasis/group / Hepatoma weight: 21 days; for Hepatoma weight: mean ± SEM of 11 rats
Procedure: Male Donryu rats of four weeks old were purchased from NRC Haruna, Gumma, Japan, and were preliminarily fed for 6 days in quintuple cages in a room with a controlled environment with light period of 8:00 to 20:00, room temperature of 22±1° C., and relative humidity of 60±5%. For the first 3 days, the animals were fed ad libitum with a stock pellet diet (CE-2; CLEA Japan, Tokyo), and for the next 3 days, they were fed a basal diet containing 20% milk casein (20C) (Table 1) ad libitum together with tap water in a glass container. Following the completion of this preparatory raising, the rats were divided into three groups (11 animals per group) with equal average body weights of the respective groups were equal, and 1.0×10^7 of AH109A cells suspended in PBS (−) were transplanted in the back of all the rats. From the time immediately after transplantation, in the respective experimental groups, the animals were fed the experimental diets shown in Table 2. During the experimental period, the body weight, food intake and solid tumor size (sum of length, width and height) were measured everyday. On the day that the animals were killed, animals were deprived of experimental diets at 9:00, but freely given water until they were killed 4 hours later. Blood was collected from carotid, and the liver and solid tumors were excised. The collected blood was allowed to stand for approximately 2 hours at room temperature, and then centrifuged for 10 minutes at 3000 rpm (1750×g), 4° C., to obtain serum. This blood serum was frozen and stored at −20° C. The livers and solid tumors were washed with physiological saline, blotted on filter paper, and weighed. Furthermore, feces from the 19th to 21st days after transplantation were collected, and these feces were frozen and stored at −20° C. for the measurement of the amounts of steroids excreted from the body. The length, width and height of the solid tumors were measured, and the sums of these values were used as an index of solid tumor size.

O=C1OCC(Cc2cccc(O)c2)C1Cc1cccc(O)c1 (stereo not shown) [Enterolactone, enterolactone]
solid tumor sizes (sum of length, width and height) (100 ppm ENL diet, 7th, 8th and 18th to 21 days after transplantation, versus control diet): significant suppression
metastasis over 21 days following transplantation (ENL diet groups (10 and 100 ppm)): no metastasis was observed
solid tumor weight (both ENL ingestion groups versus control): significant decrease
Total number of metastasis/group (diet 10 ppm): 0
Hepatoma weight (diet 10 ppm): 3.4 ± 1^b g/rat
Total number of metastasis/group (diet 100 ppm): 0
Hepatoma weight (diet 100 ppm): 1.1 ± 0.2^b g/rat
